Laboratory results as given in ChEMBL document CHEMBL1201861, “Genomics of Drug Sensitity in Cancer screening data, Wellcome Trust Sanger Institute”.

Experiments:
SW948 = experiment: cells; assay type: functional, cell-based, Homo sapiens; conditions: Homo sapiens, SW948;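 further: growth inhibition of SW948 cells, read out with a cell viability assay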
Description: SANGER: Inhibition of human SW948 cell growth in a cell viability assay.

DV-90 = experiment: cells; assay type: functional, cell-based, Homo sapiens; conditions: Homo sapiens, DV-90;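 further: Read-out is a viability assay, with IC50 reflecting the drop in DV-90 cell growth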
Description: SANGER: Inhibition of human DV-90 cell growth in a cell viability assay.

Caov-3 cell line = experiment: cells; assay type: functional, cell-based, Homo sapiens; conditions: Homo sapiens, Caov-3;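 further: cell growth inhibition read out by a viability assay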
Description: SANGER: Inhibition of human Caov-3 cell growth in a cell viability assay.

CAL-72 = experiment: cells; assay type: functional, cell-based, Homo sapiens; conditions: Homo sapiens, CAL-72;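 further: cell viability assay measuring inhibition of proliferation in the CAL-72 cell line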
Description: SANGER: Inhibition of human CAL-72 cell growth in a cell viability assay.

IM-9 = experiment: SANGER: Inhibition of human IM-9 cell growth in a cell viability assay.; assay type: functional, cell-based; conditions: Homo sapiens, IM-9
Calu-3 = experiment: cells; assay type: functional, cell-based, Homo sapiens; conditions: Homo sapiens, Calu-3;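 further: growth inhibition of human Calu-3 cells, determined with a cell viability assay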
Description: SANGER: Inhibition of human Calu-3 cell growth in a cell viability assay.

T47D = experiment: cells; assay type: functional, cell-based, Homo sapiens; conditions: Homo sapiens, T47D;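 further: growth inhibition of human T47D cells, measured with a cell viability assay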
Description: SANGER: Inhibition of human T47D cell growth in a cell viability assay.

NCI-H2405 = experiment: cells; assay type: functional, cell-based, Homo sapiens; conditions: Homo sapiens, NCI-H2405;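 further: growth inhibition of the human cell line, read out with a cell viability assay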
Description: SANGER: Inhibition of human NCI-H2405 cell growth in a cell viability assay.

PC-14 = experiment: cells; assay type: functional, cell-based, Homo sapiens; conditions: Homo sapiens, PC-14;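 further: cell viability assay measuring inhibition of PC-14 cell growth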
Description: SANGER: Inhibition of human PC-14 cell growth in a cell viability assay.

TYK-nu = experiment: cells; assay type: functional, cell-based, Homo sapiens; conditions: Homo sapiens, TYK-nu;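 further: growth inhibition of human TYK-nu cells, read out by a cell viability assay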
Description: SANGER: Inhibition of human TYK-nu cell growth in a cell viability assay.

SK-MEL-28 = experiment: cells; assay type: functional, cell-based, Homo sapiens; conditions: Homo sapiens, SK-MEL-28;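 further: growth inhibition of human SK-MEL-28 cells, read out with a cell viability assay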
Description: SANGER: Inhibition of human SK-MEL-28 cell growth in a cell viability assay.

KOSC-2 = experiment: cells; assay type: functional, cell-based, Homo sapiens; conditions: Homo sapiens, KOSC-2;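 further: growth inhibition of KOSC-2 cells, read out by a cell viability assay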
Description: SANGER: Inhibition of human KOSC-2 cell growth in a cell viability assay.

COLO 205 = experiment: cells; assay type: functional, cell-based, Homo sapiens; conditions: Homo sapiens, COLO 205
Description: SANGER: Inhibition of human COLO-205 cell growth in a cell viability assay.

CAL-85-1 = experiment: cells; assay type: functional, cell-based, Homo sapiens; conditions: Homo sapiens, CAL-85-1;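 further: growth inhibition of human CAL-85-1 cells, read out with a cell viability assay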
Description: SANGER: Inhibition of human CAL-85-1 cell growth in a cell viability assay.

PLC-PRF-5 = experiment: cells; assay type: functional, cell-based, Homo sapiens; conditions: Homo sapiens, PLC-PRF-5;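 further: growth inhibition of human PLC-PRF-5 cells, read out with a viability assay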
Description: SANGER: Inhibition of human PLC-PRF-5 cell growth in a cell viability assay.

ABC-1 = experiment: cells; assay type: functional, cell-based, Homo sapiens; conditions: Homo sapiens, ABC-1;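 further: growth inhibition of human ABC-1 cells, read out by a cell viability assay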
Description: SANGER: Inhibition of human ABC-1 cell growth in a cell viability assay.

NCI-H2452 = experiment: cells; assay type: functional, cell-based, Homo sapiens; conditions: Homo sapiens, NCI-H2452;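 further: growth inhibition of NCI-H2452 cells, read out with a cell viability assay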
Description: SANGER: Inhibition of human NCI-H2452 cell growth in a cell viability assay.

NCI-H64 = experiment: cells; assay type: functional, cell-based, Homo sapiens; conditions: Homo sapiens, NCI-H64;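 further: growth inhibition of NCI-H64 cells, read out with a cell viability assay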
Description: SANGER: Inhibition of human NCI-H64 cell growth in a cell viability assay.

HCC1143 = experiment: cells; assay type: functional, cell-based, Homo sapiens; conditions: Homo sapiens, HCC1143;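 further: growth inhibition of human HCC1143 cells, read out with a cell viability assay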
Description: SANGER: Inhibition of human HCC1143 cell growth in a cell viability assay.

NCI-H2342 = experiment: cells; assay type: functional, cell-based, Homo sapiens; conditions: Homo sapiens, NCI-H2342;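 further: growth inhibition of the cancer cell line, determined with a cell viability assay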
Description: SANGER: Inhibition of human NCI-H2342 cell growth in a cell viability assay.

MIA PaCa-2 = experiment: cells; assay type: functional, cell-based, Homo sapiens; conditions: Homo sapiens, MIA PaCa-2;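 further: growth inhibition of MIA PaCa-2 cells, read out with a cell viability assay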
Description: SANGER: Inhibition of human MIA-PaCa-2 cell growth in a cell viability assay.

SK-CO-1 = experiment: cells; assay type: functional, cell-based, Homo sapiens; conditions: Homo sapiens, SK-CO-1;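 further: growth inhibition of SK-CO-1 cells, determined by a viability readout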
Description: SANGER: Inhibition of human SK-CO-1 cell growth in a cell viability assay.

HO-1-N-1 = experiment: cells; assay type: functional, cell-based, Homo sapiens; conditions: Homo sapiens, HO-1-N-1;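 further: growth inhibition of human HO-1-N-1 cells, read out with a cell viability assay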
Description: SANGER: Inhibition of human HO-1-N-1 cell growth in a cell viability assay.

DMS-53 = experiment: cells; assay type: functional, cell-based, Homo sapiens; conditions: Homo sapiens, DMS-53;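 further: cell viability assay measuring growth inhibition of human DMS-53 cells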
Description: SANGER: Inhibition of human DMS-53 cell growth in a cell viability assay.

SCC-3 = experiment: cells; assay type: functional, cell-based, Homo sapiens; conditions: Homo sapiens, SCC-3;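 further: cell viability assay measuring inhibition of SCC-3 cell growth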
Description: SANGER: Inhibition of human SCC-3 cell growth in a cell viability assay.

CAL-39 = experiment: cells; assay type: functional, cell-based, Homo sapiens; conditions: Homo sapiens, CAL-39;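 further: cell viability assay measuring growth inhibition of CAL-39 cells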
Description: SANGER: Inhibition of human CAL-39 cell growth in a cell viability assay.

RT-4 = experiment: SANGER: Inhibition of human RT4 cell growth in a cell viability assay.; assay type: functional, cell-based; conditions: Homo sapiens, RT-4
HCC1419 = experiment: cells; assay type: functional, cell-based, Homo sapiens; conditions: Homo sapiens, HCC1419;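 further: growth inhibition of human HCC1419 cells, read out as cell viability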
Description: SANGER: Inhibition of human HCC1419 cell growth in a cell viability assay.

OAW-42 = experiment: cells; assay type: functional, cell-based, Homo sapiens; conditions: Homo sapiens, OAW-42;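 further: growth inhibition of OAW-42 cells, read out with a cell viability assay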
Description: SANGER: Inhibition of human OAW-42 cell growth in a cell viability assay.

LC-1F = experiment: cells; assay type: functional, cell-based, Homo sapiens; conditions: Homo sapiens, LC-1F;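 further: growth inhibition of human LC-1F cells, read out with a cell viability assay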
Description: SANGER: Inhibition of human LC-1F cell growth in a cell viability assay.

IGR-1 = experiment: cells; assay type: functional, cell-based, Homo sapiens; conditions: Homo sapiens, IGR-1;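 further: growth inhibition of human IGR-1 cells, read out with a cell viability assay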
Description: SANGER: Inhibition of human IGR-1 cell growth in a cell viability assay.

MHH-ES-1 = experiment: cells; assay type: functional, cell-based, Homo sapiens; conditions: Homo sapiens, MHH-ES-1
Description: SANGER: Inhibition of human MHH-ES-1 cell growth in a cell viability assay.

A204 = experiment: cells; assay type: functional, cell-based, Homo sapiens; conditions: Homo sapiens, A204;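 further: growth inhibition of human A204 cells, read out with a cell viability assay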
Description: SANGER: Inhibition of human A204 cell growth in a cell viability assay.

SiHa = experiment: cells; assay type: functional, cell-based, Homo sapiens; conditions: Homo sapiens, SiHa;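 further: Viability-based readout of growth inhibition in SiHa cells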
Description: SANGER: Inhibition of human SiHa cell growth in a cell viability assay.

Calu-1 = experiment: SANGER: Inhibition of human Calu-1 cell growth in a cell viability assay.; assay type: functional, cell-based; conditions: Homo sapiens, Calu-1
RMG-I = experiment: cells; assay type: functional, cell-based, Homo sapiens; conditions: Homo sapiens, RMG-I;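 further: growth inhibition of human RMG-I cells, read out with a cell viability assay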
Description: SANGER: Inhibition of human RMG-I cell growth in a cell viability assay.

MDA-MB-157 = experiment: cells; assay type: functional, cell-based, Homo sapiens; conditions: Homo sapiens, MDA-MB-157
Description: SANGER: Inhibition of human MDA-MB-157 cell growth in a cell viability assay.

HT-29 = experiment: cells; assay type: functional, cell-based, Homo sapiens; conditions: Homo sapiens, HT-29;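 further: growth inhibition of human HT-29 cells, read out by a cell viability assay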
Description: SANGER: Inhibition of human HT-29 cell growth in a cell viability assay.

SMILES	IC50 (SW948) [µM]	IC50 (DV-90) [µM]	IC50 (Caov-3 cell line) [µM]	IC50 (CAL-72) [µM]	IC50 (IM-9) [µM]	IC50 (Calu-3) [µM]	IC50 (T47D) [µM]	IC50 (NCI-H2405) [µM]	IC50 (PC-14) [µM]	IC50 (TYK-nu) [µM]	IC50 (SK-MEL-28) [µM]	IC50 (KOSC-2) [µM]	IC50 (COLO 205) [µM]	IC50 (CAL-85-1) [µM]	IC50 (PLC-PRF-5) [µM]	IC50 (ABC-1) [µM]	IC50 (NCI-H2452) [µM]	IC50 (NCI-H64) [µM]	IC50 (HCC1143) [µM]	IC50 (NCI-H2342) [µM]	other results
Nc1ccn([C@@H]2O[C@H](CO)[C@@H](O)C2(F)F)c(=O)n1 [GEMCITABINE]	> 1.02	> 1.02	0.0541	> 1.02	0.347	0.0173	> 1.02	0.0191	0.203	0.0726	> 1.02	> 1.02	> 1.02	0.145	> 1.02	0.0226	> 1.02	0.151	> 1.02	0.00763	IC50 (MIA PaCa-2): 0.0234 µM; IC50 (SK-CO-1): 0.034 µM; IC50 (HO-1-N-1): 0.0238 µM; IC50 (DMS-53): > 1.02 µM; IC50 (SCC-3): 0.0896 µM; IC50 (CAL-39): > 1.02 µM; IC50 (RT-4): > 1.02 µM; IC50 (HCC1419): > 1.02 µM; IC50 (OAW-42): 0.0921 µM; IC50 (LC-1F): > 1.02 µM; IC50 (IGR-1): 0.0144 µM; IC50 (MHH-ES-1): < 0.004 µM; IC50 (A204): 0.0112 µM; IC50 (SiHa): > 1.02 µM; IC50 (Calu-1): 0.22 µM; IC50 (RMG-I): > 1.02 µM; IC50 (MDA-MB-157): > 1.02 µM; IC50 (HT-29): < 0.004 µM
Oc1ccc2ccccc2c1SSc1c(O)ccc2ccccc12	> 32	> 32	> 32	24.7	7.93	> 32	> 32	12	> 32	> 32	> 32	> 32	> 32	7.37	> 32	> 32	> 32	> 32	> 32	> 32	IC50 (MIA PaCa-2): 18.1 µM; IC50 (SK-CO-1): > 32 µM; IC50 (HO-1-N-1): > 32 µM; IC50 (DMS-53): > 32 µM; IC50 (SCC-3): > 32 µM; IC50 (CAL-39): > 32 µM; IC50 (RT-4): > 32 µM; IC50 (HCC1419): > 32 µM; IC50 (OAW-42): > 32 µM; IC50 (LC-1F): > 32 µM; IC50 (IGR-1): > 32 µM; IC50 (MHH-ES-1): > 32 µM; IC50 (A204): > 32 µM; IC50 (SiHa): > 32 µM; IC50 (Calu-1): > 32 µM; IC50 (RMG-I): > 32 µM; IC50 (MDA-MB-157): > 32 µM; IC50 (HT-29): > 32 µM
O=C(O)c1ccc(-c2c[nH]c3ncc(-c4ccccc4)cc23)cc1C1CCCC1 [GSK-650394]	> 16	> 16	> 16	> 16	> 16	10.7	> 16	> 16	> 16	> 16	> 16	> 16	> 16	> 16	> 16	6.58	> 16	> 16	> 16	2.19	IC50 (MIA PaCa-2): 7.08 µM; IC50 (SK-CO-1): > 16 µM; IC50 (HO-1-N-1): > 16 µM; IC50 (DMS-53): > 16 µM; IC50 (SCC-3): > 16 µM; IC50 (CAL-39): 9.31 µM; IC50 (RT-4): > 16 µM; IC50 (HCC1419): > 16 µM; IC50 (OAW-42): > 16 µM; IC50 (LC-1F): > 16 µM; IC50 (IGR-1): 4.23 µM; IC50 (MHH-ES-1): 13.6 µM; IC50 (A204): > 16 µM; IC50 (SiHa): > 16 µM; IC50 (Calu-1): > 16 µM; IC50 (RMG-I): > 16 µM; IC50 (MDA-MB-157): > 16 µM; IC50 (HT-29): 7.27 µM
